Experimental findings from ChEMBL document CHEMBL2062490, “The discovery of new potent non-peptide Angiotensin II AT1 receptor blockers: a concise synthesis, molecular docking studies and biological evaluation of N-substituted 5-butylimidazole derivatives” (Eur J Med Chem, 2012) are described below.

In experiment [1] the target is T1, Type-1 angiotensin II receptor (Homo sapiens) (UniProt P30556).
T1 sequence (whole entry): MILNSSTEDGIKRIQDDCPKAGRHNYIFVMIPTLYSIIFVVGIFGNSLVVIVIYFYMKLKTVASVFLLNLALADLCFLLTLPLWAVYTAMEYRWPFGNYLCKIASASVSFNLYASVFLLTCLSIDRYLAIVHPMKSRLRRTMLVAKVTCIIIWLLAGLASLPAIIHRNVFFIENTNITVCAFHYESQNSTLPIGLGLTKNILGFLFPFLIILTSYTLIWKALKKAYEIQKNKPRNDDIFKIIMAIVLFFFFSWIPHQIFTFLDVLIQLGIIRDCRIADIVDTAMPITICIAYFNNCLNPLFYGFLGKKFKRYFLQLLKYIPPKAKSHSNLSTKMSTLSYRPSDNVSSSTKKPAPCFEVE
The experiment in a line: (§1) Displacement of 125[I-Sar1-Ile8]ANG II from human AT1 receptor expressed in HEK293 membranes after 1 hr by gamma counting. It is filed as cell membranes.

In experiment [2] the target is T2, Type-1 angiotensin II receptor (Homo sapiens, UniProt P30556).
T2 sequence (P30556 whole entry): T1 sequence (whole entry)
Described as §1. It is filed as cell membranes.

The nature of experiment [3]: Antagonist activity at AT1 receptor in rat uterus assessed inhibition of ANG II-induced contraction.

In the case of `CCCCc1cnc(C=O)n1Cc1ccc(-c2ccccc2-c2nn[nH]n2)cc1`, in experiment [1], the Activity result is “Dose-dependent effect”. Further, the IC50 in experiment [2] (read-out: IC50) amounted to 24 nM. Moreover, the pA2 in experiment [3] is on record as 7.76.

Take `CCCCc1c(Cl)nc(CO)n1Cc1ccc(-c2ccccc2-c2nn[nH]n2)cc1`: in experiment [1], the Activity result was “Dose-dependent effect”. For the same compound, the IC50 in experiment [2] (read-out: IC50) came out at 634 nM. For the same compound, the pA2 in experiment [3] was 6.98.

In the case of `CCCCc1cnc(CO)n1Cc1ccc(-c2ccccc2-c2nn[nH]n2)cc1`, the Activity entry in experiment [1] is “Dose-dependent effect”. In experiment [3], this compound had a pA2 of 7.97.

For `CCCCc1c(I)nc(CO)n1Cc1ccc(-c2ccccc2-c2nnn[nH]2)cc1`, in experiment [2] (read-out: IC50), the IC50 came out at 446 nM.

For the compound `CCCCc1nc(Cl)c(CO)n1Cc1ccc(-c2ccccc2-c2nnn[nH]2)cc1`, in experiment [1], the Activity entry is “Dose-dependent effect”.

For `CCCCc1cnc(C(=O)O)n1Cc1ccc(-c2ccccc2-c2nn[nH]n2)cc1`, the Activity result in experiment [1] is “Dose-dependent effect”. This compound also came in with a pA2 in experiment [3] of 7.83.

Take `CCCCc1c(Br)nc(CO)n1Cc1ccc(-c2ccccc2-c2nn[nH]n2)cc1`: in experiment [1], the Activity entry was “Dose-dependent effect”. Further, the pA2 in experiment [3] is on record as 7.58.

`CCCCc1c(Br)nc(CO)n1Cc1ccc(-c2ccccc2-c2nnn[nH]2)cc1`: the IC50 in experiment [2] (read-out: IC50) was 117 nM.

On to `CCCCc1c(I)nc(CO)n1Cc1ccc(-c2ccccc2-c2nn[nH]n2)cc1`, for which the Activity result in experiment [1] is “Dose-dependent effect”. In addition, the pA2 in experiment [3] was 7.35.

With `CCCCc1cnc(CO)n1Cc1ccc(-c2ccccc2-c2nnn[nH]2)cc1`, the IC50 in experiment [2] (read-out: IC50) worked out at 30 nM.

Take `CCCCc1cnc(CO)n1Cc1ccc(-c2ccccc2C(=O)O)cc1`: the Activity result in experiment [1] was “Dose-dependent effect”. Further, the IC50 in experiment [2] (read-out: IC50) was 245 nM. Moreover, in experiment [3], the pA2 was 6.19.

Take `CCCCc1cnc(C(=O)O)n1Cc1ccc(-c2ccccc2-c2nnn[nH]2)cc1`: the IC50 was 3 nM in experiment [2] (read-out: IC50) and 3.47 nM in experiment [2] (read-out: pIC50 (converted)).
